Like-named read-outs stand apart in the source and are kept apart here.
Columns and labels:
Assay in all cases: Test E pre-/postemergence plant response
Type in all cases: in vivo
[1] = system: chickweed (common chickweed, Stellaria media); settings: scale 0 to 100, read-out: Plant response rating, Chickweed; for pest or weed control at 16 g/ha: 16 g ai/ha; for pest or weed control at 31 g/ha: 31 g ai/ha; for pest or weed control at 62 g/ha: 62 g ai/ha; for pest or weed control at 125 g/ha: 125 g ai/ha
Outline: (§1)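 Visual scores on a 0–100 scale (100 = complete control) were assigned against untreated controls 7–21 days after treatment in a controlled environment. Compounds, formulated with solvent plus surfactant, were applied to pre-emergence silt-loam sowings or to 1- to 4-leaf plants (2–18 cm) in potting medium.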

[2] = system: winter barley (Hordeum vulgare); settings: scale 0 to 100, read-out: Plant response rating, Barley, Winter; for plant injury at 16 g/ha: 16 g ai/ha; for plant injury at 31 g/ha: 31 g ai/ha; for plant injury at 62 g/ha: 62 g ai/ha; for plant injury at 125 g/ha: 125 g ai/ha
Outline: as §1

[3] = system: downy bromegrass (Bromus tectorum); settings: scale 0 to 100, read-out: Plant response rating, Bromegrass, Downy; for pest or weed control at 16 g/ha: 16 g ai/ha; for pest or weed control at 31 g/ha: 31 g ai/ha; for pest or weed control at 62 g/ha: 62 g ai/ha; for pest or weed control at 125 g/ha: 125 g ai/ha
Outline: as §1

[4] = system: speedwell (bird's-eye speedwell, Veronica persica); settings: scale 0 to 100, read-out: Plant response rating, Speedwell; for pest or weed control at 16 g/ha: 16 g ai/ha; for pest or weed control at 62 g/ha: 62 g ai/ha; for pest or weed control at 125 g/ha: 125 g ai/ha
Outline: as §1

[5] = system: field poppy (Papaver rhoeas); settings: scale 0 to 100, read-out: Plant response rating, Field Poppy; for pest or weed control at 16 g/ha: 16 g ai/ha; for pest or weed control at 31 g/ha: 31 g ai/ha; for pest or weed control at 62 g/ha: 62 g ai/ha; for pest or weed control at 125 g/ha: 125 g ai/ha
Outline: as §1

[6] = system: windgrass (Apera spica-venti); settings: scale 0 to 100, read-out: Plant response rating, Windgrass; for pest or weed control at 16 g/ha: 16 g ai/ha; for pest or weed control at 62 g/ha: 62 g ai/ha; for pest or weed control at 125 g/ha: 125 g ai/ha
Outline: as §1

kochia (Kochia scoparia) = settings: Bassia scoparia, scale 0 to 100, read-out: Plant response rating, Kochia; for pest or weed control at 16 g/ha: 16 g ai/ha; for pest or weed control at 31 g/ha: 31 g ai/ha; for pest or weed control at 62 g/ha: 62 g ai/ha; for pest or weed control at 125 g/ha: 125 g ai/ha
Outline: as §1

[7] = system: pigweed (Amaranthus retroflexus); settings: scale 0 to 100, read-out: Plant response rating, Pigweed; for pest or weed control at 16 g/ha: 16 g ai/ha; for pest or weed control at 31 g/ha: 31 g ai/ha; for pest or weed control at 62 g/ha: 62 g ai/ha; for pest or weed control at 125 g/ha: 125 g ai/ha
Outline: as §1

[8] = system: canarygrass (Phalaris minor); settings: scale 0 to 100, read-out: Plant response rating, Canarygrass; for pest or weed control at 16 g/ha: 16 g ai/ha; for pest or weed control at 31 g/ha: 31 g ai/ha; for pest or weed control at 62 g/ha: 62 g ai/ha; for pest or weed control at 125 g/ha: 125 g ai/ha
Outline: as §1

[9] = system: spring barley (Hordeum vulgare); settings: for plant injury at 16 g/ha: 16 g ai/ha; for plant injury at 31 g/ha: 31 g ai/ha; for plant injury at 62 g/ha: 62 g ai/ha; for plant injury at 125 g/ha: 125 g ai/ha
Outline: as §1

[10] = system: wild buckwheat (Polygonum convolvulus); settings: Fallopia convolvulus, scale 0 to 100, read-out: Plant response rating, Buckwheat, Wild; for pest or weed control at 16 g/ha: 16 g ai/ha; for pest or weed control at 31 g/ha: 31 g ai/ha; for pest or weed control at 62 g/ha: 62 g ai/ha; for pest or weed control at 125 g/ha: 125 g ai/ha
Outline: as §1

[11] = post-emergence, 31 g ai/ha, Postemergence
[12] = post-emergence, Postemergence, scale 0 to 100, read-out: Plant response rating, Barley, Spring
[13] = pre-emergence, Preemergence, scale 0 to 100, read-out: Plant response rating, Barley, Spring

`Fc1cccc(Oc2ncc(Br)cn2)c1-c1cc(C(F)F)no1` [Compound 145, 5-bromo-2-[2-[3-(difluoromethyl)-5-isoxazolyl]-3-fluorophenoxy]pyrimidine] gave a pest or weed control at 16 g/ha ([1]; post-emergence, Postemergence) of 80%, a pest or weed control at 31 g/ha ([1]; post-emergence, Postemergence) of 85% and a pest or weed control at 62 g/ha ([1]; post-emergence, Postemergence) of 100%. For the same compound, the pest or weed control at 125 g/ha ([1]; post-emergence, Postemergence) was 95%, the pest or weed control at 16 g/ha ([1]; pre-emergence, Preemergence) was 100% and the pest or weed control at 31 g/ha ([1]; pre-emergence, Preemergence) was 100%. For the same compound, the pest or weed control at 62 g/ha ([1]; pre-emergence, Preemergence) was 100%, the pest or weed control at 125 g/ha ([1]; pre-emergence, Preemergence) was 100% and the plant injury at 16 g/ha ([2]; post-emergence, Postemergence) was 15%. The plant injury at 31 g/ha ([2]; post-emergence, Postemergence) was 15%, the plant injury at 62 g/ha ([2]; post-emergence, Postemergence) was 30% and the plant injury at 125 g/ha ([2]; post-emergence, Postemergence) was 40%. It also gave a plant injury at 16 g/ha ([2]; pre-emergence, Preemergence) of 10%, a plant injury at 31 g/ha ([2]; pre-emergence, Preemergence) of 15% and a plant injury at 62 g/ha ([2]; pre-emergence, Preemergence) of 30%. The plant injury at 125 g/ha ([2]; pre-emergence, Preemergence) was 85%, the pest or weed control at 16 g/ha ([3]; post-emergence, Postemergence) was 25% and the pest or weed control at 31 g/ha ([3]; post-emergence, Postemergence) was 35%. It also gave a pest or weed control at 62 g/ha ([3]; post-emergence, Postemergence) of 55%, a pest or weed control at 125 g/ha ([3]; post-emergence, Postemergence) of 55% and a pest or weed control at 16 g/ha ([3]; pre-emergence, Preemergence) of 10%. It also gave a pest or weed control at 31 g/ha ([3]; pre-emergence, Preemergence) of 20%, a pest or weed control at 62 g/ha ([3]; pre-emergence, Preemergence) of 35% and a pest or weed control at 125 g/ha ([3]; pre-emergence, Preemergence) of 60%. The pest or weed control at 16 g/ha ([4]; post-emergence, Postemergence) was 100%, the pest or weed control at 31 g/ha [4, 11] was 100% and the pest or weed control at 62 g/ha ([4]; post-emergence, Postemergence) was 100%. For the same compound, the pest or weed control at 125 g/ha ([4]; post-emergence, Postemergence) was 100%, the pest or weed control at 16 g/ha ([4]; pre-emergence, Preemergence) was 95% and the pest or weed control at 62 g/ha ([4]; pre-emergence, Preemergence) was 100%. It also gave a pest or weed control at 125 g/ha ([4]; pre-emergence, Preemergence) of 100%, a pest or weed control at 16 g/ha ([5]; post-emergence, Postemergence) of 100% and a pest or weed control at 31 g/ha ([5]; post-emergence, Postemergence) of 100%. For the same compound, the pest or weed control at 62 g/ha ([5]; post-emergence, Postemergence) was 100%, the pest or weed control at 125 g/ha ([5]; post-emergence, Postemergence) was 100% and the pest or weed control at 16 g/ha ([5]; pre-emergence, Preemergence) was 100%. The pest or weed control at 31 g/ha ([5]; pre-emergence, Preemergence) was 100%, the pest or weed control at 62 g/ha ([5]; pre-emergence, Preemergence) was 100% and the pest or weed control at 125 g/ha ([5]; pre-emergence, Preemergence) was 100%. The pest or weed control at 16 g/ha ([6]; post-emergence, Postemergence) was 5%, the pest or weed control at 31 g/ha [6, 11] was 10% and the pest or weed control at 62 g/ha ([6]; post-emergence, Postemergence) was 20%. It also gave a pest or weed control at 125 g/ha ([6]; post-emergence, Postemergence) of 60%, a pest or weed control at 16 g/ha ([6]; pre-emergence, Preemergence) of 10% and a pest or weed control at 62 g/ha ([6]; pre-emergence, Preemergence) of 75%. For the same compound, the pest or weed control at 125 g/ha ([6]; pre-emergence, Preemergence) was 98%, the pest or weed control at 16 g/ha (kochia (Kochia scoparia); post-emergence, Postemergence) was 98% and the pest or weed control at 31 g/ha (kochia (Kochia scoparia); post-emergence, Postemergence) was 100%. For the same compound, the pest or weed control at 62 g/ha (kochia (Kochia scoparia); post-emergence, Postemergence) was 100%, the pest or weed control at 125 g/ha (kochia (Kochia scoparia); post-emergence, Postemergence) was 100% and the pest or weed control at 16 g/ha (kochia (Kochia scoparia); pre-emergence, Preemergence) was 60%. The pest or weed control at 31 g/ha (kochia (Kochia scoparia); pre-emergence, Preemergence) was 100%, the pest or weed control at 62 g/ha (kochia (Kochia scoparia); pre-emergence, Preemergence) was 100% and the pest or weed control at 125 g/ha (kochia (Kochia scoparia); pre-emergence, Preemergence) was 100%. For the same compound, the pest or weed control at 16 g/ha ([7]; post-emergence, Postemergence) was 100%, the pest or weed control at 31 g/ha ([7]; post-emergence, Postemergence) was 100% and the pest or weed control at 62 g/ha ([7]; post-emergence, Postemergence) was 100%. For the same compound, the pest or weed control at 125 g/ha ([7]; post-emergence, Postemergence) was 100%, the pest or weed control at 16 g/ha ([7]; pre-emergence, Preemergence) was 100% and the pest or weed control at 31 g/ha ([7]; pre-emergence, Preemergence) was 100%. It also gave a pest or weed control at 62 g/ha ([7]; pre-emergence, Preemergence) of 100%, a pest or weed control at 125 g/ha ([7]; pre-emergence, Preemergence) of 100% and a pest or weed control at 16 g/ha ([8]; post-emergence, Postemergence) of 15%. It also gave a pest or weed control at 31 g/ha ([8]; post-emergence, Postemergence) of 25%, a pest or weed control at 62 g/ha ([8]; post-emergence, Postemergence) of 40% and a pest or weed control at 125 g/ha ([8]; post-emergence, Postemergence) of 65%. The pest or weed control at 16 g/ha ([8]; pre-emergence, Preemergence) was 40%, the pest or weed control at 31 g/ha ([8]; pre-emergence, Preemergence) was 75% and the pest or weed control at 62 g/ha ([8]; pre-emergence, Preemergence) was 100%. The pest or weed control at 125 g/ha ([8]; pre-emergence, Preemergence) was 100%, the plant injury at 16 g/ha [9, 12] was 15% and the plant injury at 31 g/ha [9, 12] was 15%. The plant injury at 62 g/ha [9, 12] was 20%, the plant injury at 125 g/ha ([9]; post-emergence, Postemergence, scale 0 to 100 (0 no effect, 100 complete control), read-out: Plant response rating, Barley, Spring) was 30% and the plant injury at 16 g/ha [9, 13] was 15%. It also gave a plant injury at 31 g/ha [9, 13] of 25%, a plant injury at 62 g/ha [9, 13] of 45% and a plant injury at 125 g/ha [9, 13] of 80%. For the same compound, the pest or weed control at 16 g/ha ([10]; post-emergence, Postemergence) was 100%, the pest or weed control at 31 g/ha ([10]; post-emergence, Postemergence) was 100% and the pest or weed control at 62 g/ha ([10]; post-emergence, Postemergence) was 100%. The pest or weed control at 125 g/ha ([10]; post-emergence, Postemergence) was 100%, the pest or weed control at 16 g/ha ([10]; pre-emergence, Preemergence) was 100% and the pest or weed control at 31 g/ha ([10]; pre-emergence, Preemergence) was 100%. It also gave a pest or weed control at 62 g/ha ([10]; pre-emergence, Preemergence) of 85% and a pest or weed control at 125 g/ha ([10]; pre-emergence, Preemergence) of 100%.

Source: patent publication US10131652B2, “Pyrimidinyloxy benzene derivatives as herbicides” (E. I. DU PONT DE NEMOURS AND COMPANY, priority 2014, dated 2018)
